Columns and labels:
A549 = assay: MTT cell growth inhibition assay, A549 lung carcinoma cells; format: cell-based, human; settings: 72 hours exposure
Description: (§1) The antiproliferative activity of FMdC in combination with cisplatin on growth inhibition in human carcinoma cell lines in vitro was studied using the following method.
(§2) Two lung carcinoma cell lines, A549 and Calu-6, (available through ATCC, Rockville, Md.), were cultured in F12K medium with 10% fetal bovine serum at an atmosphere of 5% CO2 at 37° C. All cells were exposed to both FMdC and cisplatin in different concentrations for 72 hours.
(§3) Cell growth inhibition was determined by measuring the metabolic activity of cells using the MTT (tetrazolium salt) assay. For the MTT assays, the cells were seeded at 4×10^3 in 100 μL per well in a 96-well microtiter culture plate. The concentration of FMdC ranged from 10 nM to 100 μM and the concentration of cisplatin ranged from 1 μM to 10 mM. At the end of the treatment, tetrazolium salt (MTT) was added to each well and then solubilized. The microtiter plate was then measured (O.D. at 570 nm) using an ELISA plate reader. The 50% inhibitory concentrations (IC50) values of FMdC and cisplatin as single agents and in combination were determined.

Calu-6 = assay: MTT cell growth inhibition assay, Calu-6 lung carcinoma cells; format: cell-based, human; settings: Calu-6 cells, 72 hours exposure
Description: as §1, §2, §3

[1] = system: A549 Human NSCLC Xenografts; assay: Anti-tumor activity, A549 human NSCLC xenografts, multiple dose; format: in vivo, nu/nu mice; settings: i.p.; for TVQT (days) (M ± SE), tumor volume quadrupling time: FMdC or gemcitabine 20 mg/kg Day 0, 3, 7, 10, CDDP 4 mg/kg Day 0, 7, FMdC 15 minutes prior to cisplatin; for TGD (days) (M ± SE), tumor growth delay: FMdC or gemcitabine 20 mg/kg Day 0, 3, 7, 10, CDDP 4 mg/kg Day 0, 7, difference of TVQT vs untreated control
Description: This example evaluated the effect of FMdC in combination with cisplatin in a human non-small-cell lung cancer (NSCLC) xenograft model. This combination was compared to the administration of the combination of gemcitabine with cisplatin. Gemcitabine (Gemzar®, Eli Lilly and Company) is 2′-deoxy-2′,2′-difluorocytidine (dFdC).
(§4) Xenogeneic NSCLC tumors of A549 cells (available through ATCC, Rockville, Md.) were induced by intradermal injection of approximately 5×10^6 cells into the flanks of female nu/nu mice. Two to three weeks after tumor cell inoculation, when the tumors were approximately 10 mm^3 in size, treatment with FMdC, gemcitabine or cisplatin solution was administered intraperitoneally (i.p.) in a volume of approximately 10 μL per gram of mouse body weight. Six to eight animals were used per treatment group.
(§5) The injectable solutions were prepared as follows: Lyophilized FMdC was reconstituted with sterile saline to a concentration of 2 or 20 mg/mL; gemcitabine was reconstituted with sterile saline to a concentration of 2 mg/mL; and cisplatin solution was prepared from lyophilized cisplatin (Cisplatin for Injection, David Bull Laboratories) by reconstitution with sterile water to a concentration of 0.4 or 0.6 mg/mL.
For this multiple treatment regimens, FMdC or gemcitabine was administered twice a week for two weeks at 20 mg/kg and cisplatin was administered once a week for two weeks at 4 mg/kg. FMdC was administered by injection 15 minutes prior to the administration of cisplatin.
(§6) Tumor growth and animal body weight were determined twice weekly for up to 30 days. Tumor volume quadrupling time (TVQT) was used as the study endpoint. Tumor growth delay (TGD) is the difference between TVQTs of a treated group and untreated control.

[2] = system: A549 Human NSCLC Xenografts; assay: Influence of time interval between FMdC and CDDP, A549 human NSCLC xenografts, single dose; format: in vivo, nu/nu mice; settings: single agent, single dose i.p.; FMdC 200 mg/kg, CDDP 6 mg/kg
Description: (§7) This example evaluated the effect of FMdC in combination with cisplatin in two human non-small-cell lung cancer (NSCLC) xenograft models. This example examined the influence of the time interval between FMdC and cisplatin administration.
as §4, with “A549 cells or Calu-6” for “A549”, “FMdC and/or” for “FMdC, gemcitabine or”
as §5, with “mg/mL;” for “mg/mL; gemcitabine”
as §6

[3] = system: Calu-6 Human NSCLC Xenografts; assay: Influence of time interval between FMdC and CDDP, Calu-6 human NSCLC xenografts, single dose; format: in vivo, nu/nu mice; settings: single agent, single dose i.p.; FMdC 200 mg/kg, CDDP 6 mg/kg
Description: as §7
as §4, with “A549 cells or Calu-6” for “A549”, “FMdC and/or” for “FMdC, gemcitabine or”
as §5, with “mg/mL;” for “mg/mL; gemcitabine”
as §6

SMILES	Cell growth inhibition / cell death (MTT assay) (A549)	Cell growth inhibition / cell death (MTT assay) (Calu-6)	TVQT (days) (M ± SE), tumor volume quadrupling time [1]	TGD (days) (M ± SE), tumor growth delay [1]	TGD (days) (M ± SE) [2]	TVQT (days) (M ± SE) [2]	TGD (days) (M ± SE) [3]	TVQT (days) (M ± SE) [3]
Nc1ccn([C@@H]2O[C@H](CO)[C@@H](O)/C2=C\F)c(=O)n1 [FMdC, (E)-2′-deoxy-2′-(fluoromethylene)cytidine]	not effective	not effective	19.8 ± 1.1	3.0 ± 1.6	3.6 ± 1.3	17.8 ± 1.0	2.0 ± 0.6	11.3 ± 0.4
N.N.[Cl][Pt][Cl] [CDDP, cis-diamminedichloroplatinum]	not effective	not effective	18.1 ± 0.9	1.3 ± 1.5	1.9 ± 2.0	16.1 ± 1.8	8.8 ± 1.6	18.1 ± 1.5
Nc1ccn([C@@H]2O[C@H](CO)[C@@H](O)C2(F)F)c(=O)n1 [Gemcitabine, 2′-deoxy-2′,2′-difluorocytidine]	–	–	18.7 ± 1.0	1.9 ± 1.6	–	–	–	–
